Results reported in paper PMC10175918 (Communications Biology, 2023).
Like-named read-outs stand apart in the source and are kept apart here.

What was measured:
Test in all cases: TGFα-shedding assay-based GPCR screening with chimeric Gα subunit proteins
Assay type in all cases: cell-based
348 GPCRs [1] = biological target: 348 GPCRs (Homo sapiens, UniProt P43220); settings: 10µM, Favipiravir 100μM
348 GPCRs [2] = biological target: T1, 348 GPCRs (Homo sapiens, UniProt P46094); settings: 10µM
T1 construct: expressed in transfected cells; host or cells: HEK293A
T1 sequence (P46094 1-333): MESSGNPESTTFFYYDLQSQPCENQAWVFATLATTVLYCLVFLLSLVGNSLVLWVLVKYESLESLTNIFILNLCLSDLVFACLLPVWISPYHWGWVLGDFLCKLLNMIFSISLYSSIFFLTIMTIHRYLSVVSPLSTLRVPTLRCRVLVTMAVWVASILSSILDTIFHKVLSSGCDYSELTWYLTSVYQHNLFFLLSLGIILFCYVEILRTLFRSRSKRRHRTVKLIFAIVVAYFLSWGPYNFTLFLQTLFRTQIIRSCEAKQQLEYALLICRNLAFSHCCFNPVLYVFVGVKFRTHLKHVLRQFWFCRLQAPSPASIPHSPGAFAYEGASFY

348 GPCRs [3] = biological target: T2, 348 GPCRs (Homo sapiens, UniProt Q9Y2T5); settings: 10µM
T2 construct: expressed in transfected cells; host or cells: HEK293A
T2 sequence (Q9Y2T5 whole entry): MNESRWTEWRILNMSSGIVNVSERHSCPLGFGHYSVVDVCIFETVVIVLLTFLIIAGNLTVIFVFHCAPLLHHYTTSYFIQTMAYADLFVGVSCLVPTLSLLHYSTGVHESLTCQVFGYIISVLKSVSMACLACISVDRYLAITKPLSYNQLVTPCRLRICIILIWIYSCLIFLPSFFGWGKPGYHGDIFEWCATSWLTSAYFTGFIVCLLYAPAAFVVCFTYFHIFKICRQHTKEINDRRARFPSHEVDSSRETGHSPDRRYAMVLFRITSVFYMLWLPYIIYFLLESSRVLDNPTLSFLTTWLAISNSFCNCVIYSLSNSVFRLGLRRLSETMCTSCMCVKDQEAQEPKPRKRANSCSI

348 GPCRs [4] = biological target: T3, 348 GPCRs (Homo sapiens, UniProt P25106); settings: 10µM
T3 construct: expressed in transfected cells; host or cells: HEK293A
T3 sequence (P25106 whole entry): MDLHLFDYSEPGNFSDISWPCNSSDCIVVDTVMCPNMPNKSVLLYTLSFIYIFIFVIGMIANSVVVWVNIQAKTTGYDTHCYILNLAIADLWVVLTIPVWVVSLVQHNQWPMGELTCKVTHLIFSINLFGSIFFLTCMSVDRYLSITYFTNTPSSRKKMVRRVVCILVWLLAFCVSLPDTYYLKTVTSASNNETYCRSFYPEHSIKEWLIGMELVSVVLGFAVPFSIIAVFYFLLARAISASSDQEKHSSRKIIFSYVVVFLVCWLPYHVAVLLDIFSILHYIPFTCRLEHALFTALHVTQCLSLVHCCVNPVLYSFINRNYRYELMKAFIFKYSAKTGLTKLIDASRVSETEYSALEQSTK

348 GPCRs [5] = biological target: T4, 348 GPCRs (Homo sapiens, UniProt Q9Y5N1); settings: 10µM, Favipiravir 100μM
T4 construct: expressed in transfected cells; host or cells: HEK293A
T4 sequence (Q9Y5N1 whole entry): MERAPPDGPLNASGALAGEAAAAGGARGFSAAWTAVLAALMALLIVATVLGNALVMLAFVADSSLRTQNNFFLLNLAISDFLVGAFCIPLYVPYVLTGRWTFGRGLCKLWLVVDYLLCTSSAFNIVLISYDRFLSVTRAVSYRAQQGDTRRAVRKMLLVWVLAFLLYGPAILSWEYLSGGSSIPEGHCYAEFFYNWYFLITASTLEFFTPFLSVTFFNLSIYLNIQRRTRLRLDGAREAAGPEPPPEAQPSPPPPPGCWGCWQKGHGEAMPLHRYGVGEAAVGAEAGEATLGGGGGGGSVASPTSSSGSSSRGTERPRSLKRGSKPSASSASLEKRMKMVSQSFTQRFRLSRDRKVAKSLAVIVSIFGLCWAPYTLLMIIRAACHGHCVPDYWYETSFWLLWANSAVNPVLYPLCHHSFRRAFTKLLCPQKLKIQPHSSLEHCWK

348 GPCRs [6] = biological target: T5, 348 GPCRs (Homo sapiens, UniProt P51582); settings: 10µM
T5 construct: expressed in transfected cells; host or cells: HEK293A
T5 sequence (P51582 whole entry): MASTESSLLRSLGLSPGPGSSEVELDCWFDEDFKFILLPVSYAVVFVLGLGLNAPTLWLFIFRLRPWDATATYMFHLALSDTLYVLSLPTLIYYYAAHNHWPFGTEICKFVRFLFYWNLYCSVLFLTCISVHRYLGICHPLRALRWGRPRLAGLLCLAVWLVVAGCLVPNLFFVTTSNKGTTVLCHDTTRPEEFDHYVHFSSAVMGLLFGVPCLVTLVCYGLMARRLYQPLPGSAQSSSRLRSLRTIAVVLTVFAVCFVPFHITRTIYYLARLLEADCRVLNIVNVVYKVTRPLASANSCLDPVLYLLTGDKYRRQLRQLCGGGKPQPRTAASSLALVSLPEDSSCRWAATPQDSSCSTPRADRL

348 GPCRs [7] = biological target: T6, 348 GPCRs (Homo sapiens, UniProt P11229); settings: 10µM
T6 sequence (P11229 1-460): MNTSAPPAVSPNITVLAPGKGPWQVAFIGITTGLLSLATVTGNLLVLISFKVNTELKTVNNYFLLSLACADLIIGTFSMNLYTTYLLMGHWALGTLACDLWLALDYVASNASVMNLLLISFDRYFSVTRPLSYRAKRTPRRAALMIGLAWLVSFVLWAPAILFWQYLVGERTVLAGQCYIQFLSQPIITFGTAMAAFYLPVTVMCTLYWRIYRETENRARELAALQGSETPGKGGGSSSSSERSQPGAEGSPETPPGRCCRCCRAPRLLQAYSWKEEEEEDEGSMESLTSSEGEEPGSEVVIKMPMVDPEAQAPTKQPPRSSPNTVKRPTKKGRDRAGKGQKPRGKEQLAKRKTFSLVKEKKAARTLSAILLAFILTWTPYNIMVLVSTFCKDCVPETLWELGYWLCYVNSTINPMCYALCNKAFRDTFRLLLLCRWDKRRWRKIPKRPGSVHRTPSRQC

348 GPCRs [8] = biological target: T7, 348 GPCRs (Homo sapiens, UniProt Q6U736); settings: 10µM, Favipiravir 100μM
T7 construct: expressed in transfected cells; host or cells: HEK293A
T7 sequence (Q6U736 whole entry): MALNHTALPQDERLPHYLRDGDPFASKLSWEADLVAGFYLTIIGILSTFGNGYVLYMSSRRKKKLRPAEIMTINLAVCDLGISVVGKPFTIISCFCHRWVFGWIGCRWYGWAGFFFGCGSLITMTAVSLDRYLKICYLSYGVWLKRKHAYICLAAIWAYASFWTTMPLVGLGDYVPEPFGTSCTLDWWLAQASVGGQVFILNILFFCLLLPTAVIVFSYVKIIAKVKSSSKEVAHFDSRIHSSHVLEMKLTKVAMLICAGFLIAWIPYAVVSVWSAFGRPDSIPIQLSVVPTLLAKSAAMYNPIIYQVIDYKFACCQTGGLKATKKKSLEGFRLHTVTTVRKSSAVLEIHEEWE

348 GPCRs [9] = biological target: T8, 348 GPCRs (Homo sapiens, UniProt Q9H3N8); settings: 10µM, Favipiravir 100μM
T8 construct: expressed in transfected cells; host or cells: HEK293A
T8 sequence (Q9H3N8 whole entry): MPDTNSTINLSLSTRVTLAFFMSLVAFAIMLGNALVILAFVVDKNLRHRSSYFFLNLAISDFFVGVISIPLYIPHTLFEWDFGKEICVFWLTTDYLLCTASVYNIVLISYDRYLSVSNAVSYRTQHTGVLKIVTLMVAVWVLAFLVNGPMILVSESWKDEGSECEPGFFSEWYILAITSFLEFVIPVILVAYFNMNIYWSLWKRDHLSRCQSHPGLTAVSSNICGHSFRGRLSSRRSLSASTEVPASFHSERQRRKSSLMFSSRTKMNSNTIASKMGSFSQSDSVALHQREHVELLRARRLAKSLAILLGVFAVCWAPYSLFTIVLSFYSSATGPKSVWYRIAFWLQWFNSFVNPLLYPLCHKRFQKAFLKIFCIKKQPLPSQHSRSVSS

348 GPCRs [10] = biological target: T9, 348 GPCRs (Homo sapiens, UniProt Q9H1Y3); settings: 10µM, Favipiravir 100μM
T9 construct: expressed in transfected cells; host or cells: HEK293A
T9 sequence (Q9H1Y3 whole entry): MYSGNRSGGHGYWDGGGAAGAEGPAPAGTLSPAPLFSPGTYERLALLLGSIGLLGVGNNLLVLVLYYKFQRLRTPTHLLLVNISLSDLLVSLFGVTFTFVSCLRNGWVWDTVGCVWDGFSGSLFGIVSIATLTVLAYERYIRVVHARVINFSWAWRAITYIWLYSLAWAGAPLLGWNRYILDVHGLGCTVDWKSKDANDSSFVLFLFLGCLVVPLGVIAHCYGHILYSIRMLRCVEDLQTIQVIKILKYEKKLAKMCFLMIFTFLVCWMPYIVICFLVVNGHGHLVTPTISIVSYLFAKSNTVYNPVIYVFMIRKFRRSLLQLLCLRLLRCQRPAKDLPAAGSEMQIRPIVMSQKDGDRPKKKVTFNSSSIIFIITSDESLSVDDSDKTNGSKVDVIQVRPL

348 GPCRs [11] = biological target: T10, 348 GPCRs (Homo sapiens, UniProt Q8TDT2); settings: 10µM, Favipiravir 100μM
T10 construct: expressed in transfected cells; host or cells: HEK293A
T10 sequence (Q8TDT2 whole entry): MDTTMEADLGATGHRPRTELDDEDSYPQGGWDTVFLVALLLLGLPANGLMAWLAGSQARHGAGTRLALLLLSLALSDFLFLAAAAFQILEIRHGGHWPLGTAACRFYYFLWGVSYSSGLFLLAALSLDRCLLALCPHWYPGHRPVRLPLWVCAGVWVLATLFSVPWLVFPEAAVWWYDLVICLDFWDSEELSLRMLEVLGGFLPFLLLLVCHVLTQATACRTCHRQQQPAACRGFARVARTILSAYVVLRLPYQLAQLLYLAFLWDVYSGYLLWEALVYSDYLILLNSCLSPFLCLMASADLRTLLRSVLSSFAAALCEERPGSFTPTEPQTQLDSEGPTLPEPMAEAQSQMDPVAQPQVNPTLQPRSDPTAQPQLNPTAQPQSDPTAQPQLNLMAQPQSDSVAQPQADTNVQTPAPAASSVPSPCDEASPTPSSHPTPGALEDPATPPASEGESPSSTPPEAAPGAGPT

348 GPCRs [12] = biological target: T11, 348 GPCRs (Homo sapiens, UniProt Q9Y2T6); settings: 10µM
T11 construct: expressed in transfected cells; host or cells: HEK293A
T11 sequence (Q9Y2T6 whole entry): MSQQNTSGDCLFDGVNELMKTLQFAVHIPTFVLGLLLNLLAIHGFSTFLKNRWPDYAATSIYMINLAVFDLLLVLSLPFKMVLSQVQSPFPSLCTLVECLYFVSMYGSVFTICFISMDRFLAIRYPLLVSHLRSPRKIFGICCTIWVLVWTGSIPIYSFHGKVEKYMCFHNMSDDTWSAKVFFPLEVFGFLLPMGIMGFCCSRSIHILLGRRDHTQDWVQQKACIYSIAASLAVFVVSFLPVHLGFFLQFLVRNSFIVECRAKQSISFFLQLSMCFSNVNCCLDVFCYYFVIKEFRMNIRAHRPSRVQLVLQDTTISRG

348 GPCRs [13] = biological target: T12, 348 GPCRs (Homo sapiens, UniProt P16473); settings: 10µM, Favipiravir 100μM
T12 construct: expressed in transfected cells; host or cells: HEK293A
T12 sequence (P16473 21-764): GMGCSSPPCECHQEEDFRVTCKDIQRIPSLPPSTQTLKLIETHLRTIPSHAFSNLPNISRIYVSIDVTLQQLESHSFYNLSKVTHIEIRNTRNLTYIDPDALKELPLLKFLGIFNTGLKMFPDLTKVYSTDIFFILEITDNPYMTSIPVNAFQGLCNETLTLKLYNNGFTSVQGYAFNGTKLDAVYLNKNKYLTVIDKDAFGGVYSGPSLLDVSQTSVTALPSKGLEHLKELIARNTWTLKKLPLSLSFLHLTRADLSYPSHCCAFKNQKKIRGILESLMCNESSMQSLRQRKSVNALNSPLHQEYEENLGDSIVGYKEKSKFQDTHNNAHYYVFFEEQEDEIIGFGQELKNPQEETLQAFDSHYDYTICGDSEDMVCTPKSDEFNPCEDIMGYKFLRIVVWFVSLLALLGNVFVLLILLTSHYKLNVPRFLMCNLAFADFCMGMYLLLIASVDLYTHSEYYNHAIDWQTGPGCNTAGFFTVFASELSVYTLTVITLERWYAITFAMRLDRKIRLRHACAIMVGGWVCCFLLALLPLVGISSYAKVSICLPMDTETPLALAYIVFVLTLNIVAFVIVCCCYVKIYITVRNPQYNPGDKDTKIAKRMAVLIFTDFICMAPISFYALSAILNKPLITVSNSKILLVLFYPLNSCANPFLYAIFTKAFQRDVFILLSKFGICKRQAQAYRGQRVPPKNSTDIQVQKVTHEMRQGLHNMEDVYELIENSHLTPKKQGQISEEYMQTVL

348 GPCRs [14] = biological target: T13, 348 GPCRs (Homo sapiens, UniProt P41231); settings: 10µM
T13 construct: expressed in transfected cells; host or cells: HEK293A
T13 sequence (P41231 whole entry): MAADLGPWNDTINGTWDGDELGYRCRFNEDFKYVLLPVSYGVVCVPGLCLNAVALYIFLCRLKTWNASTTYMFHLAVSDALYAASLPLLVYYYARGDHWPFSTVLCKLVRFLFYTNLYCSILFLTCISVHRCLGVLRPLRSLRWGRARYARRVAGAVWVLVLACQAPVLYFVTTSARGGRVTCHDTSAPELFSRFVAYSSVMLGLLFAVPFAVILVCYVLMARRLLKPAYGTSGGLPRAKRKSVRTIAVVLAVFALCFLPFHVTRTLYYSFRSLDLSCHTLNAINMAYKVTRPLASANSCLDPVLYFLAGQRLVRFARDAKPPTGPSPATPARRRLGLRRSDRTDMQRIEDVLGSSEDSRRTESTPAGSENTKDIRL

348 GPCRs [15] = biological target: T14, 348 GPCRs (Homo sapiens, UniProt P41586); settings: 10µM, Favipiravir 100μM
T14 construct: expressed in transfected cells; host or cells: HEK293A
T14 sequence (P41586 21-468): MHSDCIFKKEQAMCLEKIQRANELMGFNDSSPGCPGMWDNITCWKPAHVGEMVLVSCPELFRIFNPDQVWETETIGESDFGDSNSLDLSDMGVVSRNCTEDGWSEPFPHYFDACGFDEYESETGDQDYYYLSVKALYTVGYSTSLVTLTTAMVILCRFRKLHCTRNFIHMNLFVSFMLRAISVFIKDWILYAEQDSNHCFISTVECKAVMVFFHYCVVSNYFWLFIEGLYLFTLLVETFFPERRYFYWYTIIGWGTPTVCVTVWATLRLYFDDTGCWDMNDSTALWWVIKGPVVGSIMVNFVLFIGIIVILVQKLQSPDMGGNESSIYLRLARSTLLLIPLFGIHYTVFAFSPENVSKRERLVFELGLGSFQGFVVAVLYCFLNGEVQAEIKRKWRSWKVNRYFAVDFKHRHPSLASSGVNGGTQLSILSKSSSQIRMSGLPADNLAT

[16] = read-out: % GPCR activation compared to TPA, GLP1R (glucagon-like peptide 1 receptor)
[17] = read-out: % GPCR activation compared to TPA, GPCR XCR1 (chemokine (C motif) receptor 1/GPR5)
[18] = read-out: % GPCR activation compared to TPA, GPCR GPR52 (G protein-coupled receptor 52)
[19] = read-out: % GPCR activation compared to TPA, GPCR CXCR7 (chemokine (C-X-C motif) receptor 7)
[20] = read-out: % GPCR activation compared to TPA, H3 (histamine receptor H3)
[21] = read-out: % GPCR activation compared to TPA, GPCR P2Y4 (pyrimidinergic receptor P2Y, G-protein coupled, 4)
[22] = read-out: % GPCR activation compared to TPA, GPCR M1 (Muscarinic acetylcholine receptor M1)
[23] = read-out: % GPCR activation compared to TPA, OPN5 (opsin 5)
[24] = read-out: % GPCR activation compared to TPA, H4 (histamine receptor H4)
[25] = read-out: % GPCR activation compared to TPA, OPN3 (opsin 3)
[26] = read-out: % GPCR activation compared to TPA, GPR152 (G Protein-Coupled Receptor 152)
[27] = read-out: % GPCR activation compared to TPA, GPCR GPR55 (G Protein-Coupled Receptor 55)
[28] = read-out: % GPCR activation compared to TPA, TSHR (thyroid stimulating hormone receptor)
[29] = read-out: % GPCR activation compared to TPA, GPCR P2Y2 (purinergic receptor P2Y, G-protein coupled, 2)
[30] = read-out: % GPCR activation compared to TPA, ADCYAP1 (ADCYAP receptor type I)

| SMILES | activation at 10 µM (348 GPCRs [1]; [16]) | activation at 10 µM (348 GPCRs [2]; [17]) | activation at 10 µM (348 GPCRs [3]; [18]) | activation at 10 µM (348 GPCRs [4]; [19]) | activation at 100 µM (348 GPCRs [5]; [20]) | activation at 10 µM (348 GPCRs [6]; [21]) | activation at 10 µM (348 GPCRs [7]; [22]) | activation at 100 µM (348 GPCRs [8]; [23]) | activation at 100 µM (348 GPCRs [9]; [24]) | activation at 100 µM (348 GPCRs [10]; [25]) | activation at 10 µM (348 GPCRs [11]; [26]) | activation at 10 µM (348 GPCRs [12]; [27]) | activation at 10 µM (348 GPCRs [13]; [28]) | activation at 10 µM (348 GPCRs [14]; [29]) | activation at 100 µM (348 GPCRs [15]; [30]) | further results |
| --- | --- | --- | --- | --- | --- | --- | --- | --- | --- | --- | --- | --- | --- | --- | --- | --- |
| CC(C)C(=O)OC[C@H]1O[C@@H](n2ccc(NO)nc2=O)[C@H](O)[C@@H]1O [molnupiravir] |  |  |  |  |  |  |  |  |  |  |  |  |  |  |  | activation at 10 µM (348 GPCRs [1]; GLP1R (glucagon-like peptide 1 receptor), read-out: % GPCR activation compared to TPA): -2.83%; activation at 10 µM (348 GPCRs [2]; GPCR XCR1 (chemokine (C motif) receptor 1/GPR5), read-out: % GPCR activation compared to TPA): -0.399%; activation at 10 µM (348 GPCRs [3]; GPCR GPR52 (G protein-coupled receptor 52), read-out: % GPCR activation compared to TPA): -1.34%; activation at 10 µM (348 GPCRs [4]; GPCR CXCR7 (chemokine (C-X-C motif) receptor 7), read-out: % GPCR activation compared to TPA): -1.56%; activation at 100 µM (348 GPCRs [5]; H3 (histamine receptor H3), read-out: % GPCR activation compared to TPA): -0.295%; activation at 10 µM (348 GPCRs [6]; GPCR P2Y4 (pyrimidinergic receptor P2Y, G-protein coupled, 4), read-out: % GPCR activation compared to TPA): -12.8%; activation at 10 µM (348 GPCRs [7]; GPCR M1 (Muscarinic acetylcholine receptor M1), read-out: % GPCR activation compared to TPA): -0.856%; activation at 100 µM (348 GPCRs [8]; OPN5 (opsin 5), read-out: % GPCR activation compared to TPA): -2.56%; activation at 100 µM (348 GPCRs [9]; H4 (histamine receptor H4), read-out: % GPCR activation compared to TPA): -3.71%; activation at 100 µM (348 GPCRs [10]; OPN3 (opsin 3), read-out: % GPCR activation compared to TPA): -0.438%; activation at 10 µM (348 GPCRs [11]; GPR152 (G Protein-Coupled Receptor 152), read-out: % GPCR activation compared to TPA): -1.29%; activation at 10 µM (348 GPCRs [12]; GPCR GPR55 (G Protein-Coupled Receptor 55), read-out: % GPCR activation compared to TPA): 0.0448%; activation at 10 µM (348 GPCRs [13]; TSHR (thyroid stimulating hormone receptor), read-out: % GPCR activation compared to TPA): -0.502%; activation at 10 µM (348 GPCRs [14]; GPCR P2Y2 (purinergic receptor P2Y, G-protein coupled, 2), read-out: % GPCR activation compared to TPA): -58.1%; activation at 100 µM (348 GPCRs [15]; ADCYAP1 (ADCYAP receptor type I), read-out: % GPCR activation compared to TPA): -0.597% |
| CCC(CC)COC(=O)[C@H](C)N[P@](=O)(OC[C@H]1O[C@@](C#N)(c2ccc3c(N)ncnn23)[C@H](O)[C@@H]1O)Oc1ccccc1 [remdesivir] | -0.928% | 0.628% | -0.476% | 0.898% | 0.0878% | -0.00402% | 3.01% | -2.25% | 7.16% | -0.473% | -0.751% | -2.75% | -3.29% | -6.22% | 2.11% |  |
| CC(C)OC(=O)[C@H](C)N[P@](=O)(OC[C@H]1O[C@@H](n2ccc(=O)[nH]c2=O)[C@](C)(F)[C@@H]1O)Oc1ccccc1 [sofosbuvir] | -2.54% | -0.208% | -2.66% | -0.832% | -2.02% | -14.4% | -0.631% | -0.631% | -3.28% | 0.266% | 1.86% | -0.223% | -0.338% | -41.7% | -0.225% |  |
